Where two headings read alike, the source gives them in different places.
System: primary culture of rat sensory neurons and Schwann cells
Assay type: cell-based
Details: for Effect on SN neurite network after cisplatin injury / Effect on SN survival as compared to the cisplatin condition: 3 nM to 100 nM, with cisplatin 10 μg/mL injury; for Survival of SNs (number of MAP-2 positive SNs), mean survival / Total neurite network (MAP-2), mean length: percentage of control, 24 h
Protocol: Primary sensory neurons (SN) and Schwann cells (SC) were cultured as previously described in Cancer Chem. Pharmacol. 2008 November;62 (6): 995-1007. Briefly, pregnant female rats of 15 days gestation (Rats Wistar; Janvier Labs France) were killed using a deep anesthesia with CO2 chamber and a cervical dislocation. Then, fetuses were collected and immediately placed in ice-cold L15 Leibovitz medium with a 2% penicillin (10,000 U/mL) and streptomycin (10 mg/mL) solution (PS) and 1% bovine serum albumin (BSA). DRG from spinal cord were treated for 20min at 37° C. with a trypsin-EDTA solution at a final concentration of 0.05% trypsin and 0.02% EDTA. The dissociation was stopped by addition of Dulbecco's modified Eagle's medium (DMEM) with 4.5 g/L of glucose, containing DNAse I grade II (final concentration 0.5 mg/mL) and 10% fetal calf serum (FCS). Cells were mechanically dissociated through the tip of a 10 mL pipette. Cells were then centrifuged at 515× g for 10 min at 4° C. DMEM F12 with a 1% solution of N2 supplement, 2 mmol/L of L-glutamine, 2% of PS solution, NGF (5 ng/ml) and NT3 (5 ng/ml). Cells were seeded at a density of 15,000 per well in 96-well plates pre-coated with poly-L-lysine and cultured at 37° C. in an air (95%)-CO2 (5%) incubator. […] Cells were washed twice in PBS. Cell membranes were permeabilized and non-specific sites were blocked with a solution of PBS containing 0.1% of saponin and 1% FCS for 15 min at room temperature. Then, cells were incubated for 2 h with a mouse monoclonal antibody anti-microtubule associated protein 2 (MAP-2) at dilution of 1/400 in PBS containing 1% fetal calf serum and 0.1% of saponin. This antibody binds specifically MAP-2 present in cell bodies and neurites of all SNs. […] Nuclei of neurons were labeled by a fluorescent marker (Hoechst solution). For each condition, 30 pictures (representative of 90% of the well area) per well were automatically taken using ImageXpress (Molecular Devices) with 20× magnification. All images were taken under the same conditions (exposition time, gain and laser intensity). Analysis of different endpoints was automatically performed using Custom Module Editor (Molecular Devices). The endpoints were: • Survival of SNs (number of MAP-2 positive SNs) • Total neurite network (MAP-2): total length of neurites of SNs (expressed in μm) All values are expressed as mean +/−SEM. Statistical analysis was performed by one-way ANOVA, followed by PLSD Fisher test.

Compound | Effect on SN neurite network after cisplatin injury | Effect on SN survival as compared to the cisplatin condition | Survival of SNs (number of MAP-2 positive SNs), mean survival (30 nM (maximal effect) with cisplatin 10 μg/mL injury, FIG. 7A) | Total neurite network (MAP-2), mean length (30 nM (maximal effect) with cisplatin 10 μg/mL injury, FIG. 7B) | Survival of SNs (number of MAP-2 positive SNs), mean survival (10 nM (maximal effect) with cisplatin 10 μg/mL injury, FIG. 8A) | Total neurite network (MAP-2), mean length (10 nM (maximal effect) with cisplatin 10 μg/mL injury, FIG. 8B)
CC(C)CN(CCCN1CCN(CCCNc2nc3ccccc3[nH]2)CC1)CC(C)C.O=S(=O)(O)O.O=S(=O)(O)O [N-(3-(4-(3-(diisobutylamino)propyl)piperazin-1-yl)propyl)-1H-benzo[d]imidazol-2-amine di-sulphate] | able to improve the neurite network after cisplatin injury | positive and significant effect on survival | 80% | 83% |  | 
N-(3-(4-(3-(diisobutylamino)propyl)piperazin-1-yl)propyl)-^1H-benzo[d]imidazol-2-amine sesqui-succinate salt [sesqui-succinate salt Form 1] | able to protect the neurite network from cisplatin damage | positive and significant effect on survival |  |  | ~77% | ~80%

— patent US20250205226A1, “USE OF N-(3-(4-(3-(DIISOBUTYLAMINO)PROPYL)PIPERAZIN-1-YL)PROPYL)-1H-BENZO[D]IMIDAZOL-2-AMINE SALTS AND SOLVATES THEREOF FOR THE TREATMENT OF SENSORY NEURON DISEASES” (ALZPROTECT, priority 2022, published 2025)
